A short description of one series: logP determination by HPLC on a reversed-phase column (C 18), EEC Directive 79/831 Annex V.A8.
Settings: not given
Here is the method:
Temperature: 40° C.; Mobile phases: 0.1% aqueous formic acid and acetonitrile; linear gradient from 10% acetonitrile to 90% acetonitrile.
Molecule `Cc1nnnn1C(=NOCc1nsc(N)n1)c1cccc(Cl)c1` [Compound 65, O-(5-Amino-1,2,4-thiadiazol-3-yl)methyl-(3-chlorophenyl-5-methyltetrazol-1-yl)methanone oxime] gave a LogP of 2.17.

Staying with this series, now noted: HPLC reversed-phase C18, 40° C., 0.1% aqueous formic acid and acetonitrile, gradient 10% to 90% acetonitrile.
The molecule `Cc1nnnn1C(Cc1ccccc1)=NOCc1csc(NC(=O)C2CC2)n1` [Compound 1] came in with a LogP of 2.56. In turn, `CCCC(=O)Nc1nc(CON=C(Cc2ccccc2)n2nnnc2C)cs1` [Compound 2] came in with a log partition coefficient (LogP) of 2.73.

Molecule `Cc1nnnn1C(Cc1ccccc1)=NOCc1csc(NC(=S)NCc2ccccc2)n1` [Compound 3] registered a LogP of 3.64. Consider `Cc1nnnn1C(Cc1ccccc1)=NOCc1csc(NC(=O)NC(C)(C)C)n1` [Compound 4], for which the LogP amounted to 2.91.

In turn, `CCCCCNC(=O)Nc1nc(CON=C(Cc2ccccc2)n2nnnc2C)cs1` [Compound 5] returned a LogP of 3.18. Molecule `Cc1nnnn1C(Cc1ccccc1)=NOCc1csc(NC(=O)Cc2ccccc2)n1` [Compound 6] returned a LogP of 3.06. In turn, `Cc1nnnn1C(Cc1ccccc1)=NOCc1csc(NC(=O)C(C)(C)C)n1` [Compound 7] gave a LogP of 3.15.

The molecule `CCCCCC(=O)Nc1nc(CON=C(Cc2ccccc2)n2nnnc2C)cs1` [Compound 8] showed a LogP of 3.3. Still for that read-out and setting: for `Cc1nnnn1C(Cc1ccccc1)=NOCc1csc(NC(=O)CCCc2ccccc2)n1` [Compound 9] the value was 3.61; for `Cc1nnnn1C(Cc1ccccc1)=NOCc1csc(NC(=O)C2CCCC2)n1` [Compound 11], 3.18. The molecule `CCCCCC(=O)Nc1cccc(CON=C(CCc2ccccc2)n2nnnc2C)n1` [Compound 17] gave a LogP of 3.84. In turn, `COc1ccc(C(=O)Nc2cccc(CON=C(C3CCCCC3)n3nnnc3C)n2)cc1` [Compound 24] returned a LogP of 3.99. `COc1ccc(OC(=O)Nc2cccc(CON=C(C3CCCCC3)n3nnnc3C)n2)cc1` [Compound 26] had a LogP of 4.16. This LogP and that of the molecule before are within 0.2 log units of each other. The molecule `CCCCCOC(=O)Nc1cccc(CON=C(C2CCCCC2)n2nnnc2C)n1` [Compound 29] displayed a LogP of 5. `Cc1nnnn1C(=NOCc1cccc(NC(=O)C(C)(C)C)n1)C1CCCCC1` [Compound 30] displayed a LogP of 3.96. Molecule `CCCC(=O)Nc1cccc(CON=C(C2CCCCC2)n2nnnc2C)n1` [Compound 33] yielded a LogP of 3.55.

With `COCCNC(=O)Nc1cccc(CON=C(C2CCCCC2)n2nnnc2C)n1` [Compound 38], the LogP is listed as 2.78. Molecule `Cc1nnnn1C(=NOCc1cccc(N)n1)C1CC1` [Compound 41] displayed a LogP of 0.87. Regarding `Cc1nnnn1C(=NOCc1cccc(NC(=O)NCCc2ccc(F)cc2)n1)C1CC1` [Compound 44], the LogP is 2.5. As to `Cc1nnnn1C(=NOCc1cccc(NC(=O)NC2CC2)n1)C1CC1` [Compound 46], the LogP is 1.88. For `Cc1nnnn1C(=NOCc1cccc(NC(=O)C2CC2)n1)C1CC1` [Compound 48], the LogP is given as 2.11. The molecule `CCCNC(=O)Nc1cccc(CON=C(C2CC2)n2nnnc2C)n1` [Compound 50] yielded a LogP of 2.09. The LogP values of the last two molecules are within 0.2 log units of each other.

Consider `COc1ccc(CCNC(=O)Nc2cccc(CON=C(C3CC3)n3nnnc3C)n2)cc1` [Compound 51], for which the LogP is listed as 2.44. `Cc1ccc(C(=NOCc2nsc(N)n2)c2nnnn2C)cc1` [Compound 68] gave a LogP of 2.07.

Molecule `Cc1ccc(C(=NOCc2nsc(NC(=O)Cc3ccccc3)n2)c2nnnn2C)cc1` [Compound 69] came in with a LogP of 3.22.

As to `CCCCCC(=O)Nc1cccc(CON=C(c2nnnn2C)C2CCCCC2)n1` [Compound 71], the LogP is 4.25.

`Cn1nnnc1C(=NOCc1cccc(NC(=O)C2CC2)n1)C1CCCCC1` [Compound 73]: the LogP is on record as 3.2. Still for that read-out and setting: for `Cn1nnnc1C(=NOCc1cccc(NC(=O)C(F)(F)F)n1)C1CCCCC1` [Compound 76] the value was 3.69. `Cn1nnnc1C(=NOCc1nccc(N)n1)c1ccccc1` [Compound 77]: the LogP came to 0.92. Molecule `CCCCCC(=O)Nc1ccnc(CON=C(c2ccccc2)c2nnnn2C)n1` [Compound 78] gave a log partition coefficient (LogP) of 3.46. On to `Cn1nnnc1C(=NOCc1nccc(NC(=O)C(C)(C)C)n1)c1ccccc1` [Compound 79], for which the LogP is recorded as 3.06. Same read-out and setting: for `Cn1nnnc1C(=NOCc1nccc(NC(=O)C2CC2)n1)c1ccccc1` [Compound 80] the value was 2.5; for `CC(C)C(=O)Nc1ccnc(CON=C(c2ccccc2)c2nnnn2C)n1` [Compound 81], 2.68. As for `CC(C)CC(=O)Nc1ccnc(CON=C(c2ccccc2)c2nnnn2C)n1` [Compound 82], the log partition coefficient (LogP) is reported as 3.

Staying with this series, now noted: reversed-phase C18 HPLC column.
For the molecule `Cc1nnnn1/C(=N/OCc1cccc(N2C(=O)c3ccccc3C2=O)n1)C1CCCCC1` [Compound 22, O-(2-Phtalimidopyridin-6-yl)methyl-(5-methyltetrazol-1-yl)-cyclohexylmethanone oxime], the chromatographic logP amounted to 3.46.

Regarding `Cc1nnnn1/C(=N/OCc1cccc(N)n1)C1CCCCC1` [Compound 23, O-(2-Aminopyridin-6-yl)methyl-(5-methyltetrazol-1-yl)-cyclohexylmethanone oxime], the chromatographic logP was found to be 1.43. `CCCCCC(=O)Nc1cccc(CO/N=C(\C2CCCCC2)n2nnnc2C)n1` [Compound 27, O-(2-n-Pentylcarbonylaminopyridin-6-yl)methyl-(5-methyltetrazol-1-yl)-cyclohexylmethanone oxime] registered a chromatographic logP of 4.39.

Usually LogP stands for the decadic logarithm of the partition coefficient of the neutral form, usually between octanol and water. A low value points to a more hydrophilic compound. One may read the chromatographic logP as a lipophilicity value derived from retention on a column. Low readings indicate a more hydrophilic compound, high ones a more lipophilic compound.

For the origin of these results see US8119646B2, “Fungicide hydroximoyl-tetrazole derivatives” (Bayer CropScience AG, priority 2006, dated 2012).
